Measured values taken from patent publication US20150031102A1, “METHODS AND COMPOSITIONS FOR ENHANCED PRODUCTION OF BUTANOL BY CLOSTRIDIA” (Butrolix LLC, priority 2012, published 2015).

System: Clostridium acetobutylicum strain ATCC 824
Test: Sequential batch transfer in 24-well culture plates (butanol, residual glucose, butanol yield and productivity)
Type: cell-based
Conditions: after 96 hours of culture; for Residual glucose concentration: initial glucose 60 g/L
Description: Each well contained 1.5 mL of growth medium. Peptide was added to each well at the indicated concentration (0, 25, 50, and 100 nM). Every 24 hours fresh medium and peptide treatment were added to a new column of wells then 1.5 μL of the previous day culture was transferred to the new well. Wells were harvested for glucose and butanol analysis after 96 hours of growth. Transfers 1, 4, 7, 10, 13, 16, […].
Briefly, Clostridium spores were germinated in a suitable growth medium for 18-24 hours then […] was transferred to 1.5 mL of fresh medium in each of four wells on a 24-well culture plate. Three of the wells had been treated with 25 nM, 50 nM and 100 nM of peptide, respectively while the fourth well was untreated. Thereafter, every 24 hours […] of each subculture was transferred to 1.5 mL of fresh medium that contained the same peptide treatment or no treatment. Transfers of successive subcultures were done for 24 days, and each subculture was grown for 96 hours before being harvested. Culture supernatants were recovered following centrifugation and were analyzed for butanol and residual glucose concentrations. Determination of optimum peptide treatment levels was based on a graphical comparison of the concentration of butanol in each of the four culture wells for sequential transfers 1, 4, 7, 10, 13, 16, 19, 22 and 24.
Clostridium acetobutylicum strain ATCC 824 was used in all experiments and the growth medium used for sequential batch transfer, time course, and continuous culture experiments contained yeast extract, casamino acids, L-cysteine, L-asparagine, phosphate buffer, trace minerals, and 6% glucose. What are believed to be quorum-sensing peptides that were used in the experiments were chemically synthesized peptides SEQ ID NO: 143 (amino acid sequence: SYPGWSW) and SEQ ID NO: 144 (amino acid sequence: ILILISG). Routine growth of the bacteria as well as the sequential batch and time course experiments were conducted in a Form a Scientific Model 1029 anaerobic gas chamber at 32° C. Continuous cultures were performed at 32° C. using duplicate New Brunswick Scientific BioFlo 3000 apparati with a dilution rate of 0.01 volume per hour, 75 rpm agitation, and nitrogen gas sparging. Optical density of culture samples was measured at 600 nm in a Beckman DU 600 series spectrophotometer and glucose was analyzed using a YSI Model 2700 Select Biochemistry Analyzer with internal glucose calibration. Butanol concentrations were determined by measuring experimental and standard samples using a Varian Saturn 3 Gas Chromatograph/Mass Spectrometer and calculating butanol concentrations using standard curves.
(§1) Sequential batch transfer experiments were carried out in 24-well culture plates that contained 1.5 mL of medium per well. Peptide was added to each well at the indicated concentrations of 0 nM (control), 25 nM, 50 nM, or 100 nM. Every 24 hours, fresh medium and peptide treatments were added to a new column of wells. Then, 1.5 uL of the previous day culture was transferred to the new well. Wells were harvested for glucose and butanol analysis after 96 hours of growth; transfers 1, 4, 7, 10, 13, 16, 19, 22, and 24 were analyzed. Two representative experiments are shown in Tables 30 and 31 and FIGS. 14 and 15.
as §1, with “32” for “30”, “33” for “31”, “16” for “14”, “17.” for “15.”

[1] = 25 nM peptide, transfer 1, Expt. 1
[2] = 25 nM peptide, transfer 4, Expt. 1
[3] = 25 nM peptide, transfer 7, Expt. 1
[4] = 25 nM peptide, transfer 10, Expt. 1
[5] = 25 nM peptide, transfer 13, Expt. 1
[6] = 25 nM peptide, transfer 16, Expt. 1
[7] = 25 nM peptide, transfer 19, Expt. 1
[8] = 25 nM peptide, transfer 22, Expt. 1
[9] = 25 nM peptide, transfer 24, Expt. 1
[10] = 50 nM peptide, transfer 1, Expt. 1
[11] = 50 nM peptide, transfer 4, Expt. 1
[12] = 50 nM peptide, transfer 7, Expt. 1
[13] = 50 nM peptide, transfer 10, Expt. 1
[14] = 50 nM peptide, transfer 13, Expt. 1
[15] = 50 nM peptide, transfer 16, Expt. 1

## ILILISG (Derived from Clostridium acetobutylicum SEQ ID NO: 110) [peptide SEQ ID NO: 144]
[1]
  Butanol concentration: 1.93 g/L
  Butanol productivity: 0.02 g butanol/L-h
  Butanol yield: 0.03 g butanol/g/glucose
  Residual glucose concentration: 43.3 g/L
25 nM peptide, transfer 1, Expt. 2 (repeat), Table 58
  Butanol concentration: 1.25 g/L
25 nM peptide, transfer 1, Expt. 2 (repeat), Table 45
  Residual glucose concentration: 48.7 g/L
[2]
  Butanol concentration: 10.01 g/L
  Butanol productivity: 0.10 g butanol/L-h
  Butanol yield: 0.17 g butanol/g/glucose
  Residual glucose concentration: 0.0 g/L
25 nM peptide, transfer 4, Expt. 2 (repeat), Table 58
  Butanol concentration: 2.36 g/L
25 nM peptide, transfer 4, Expt. 2 (repeat), Table 45
  Residual glucose concentration: 43.6 g/L
[3]
  Butanol concentration: 7.82 g/L
  Butanol productivity: 0.08 g butanol/L-h
  Butanol yield: 0.13 g butanol/g/glucose
  Residual glucose concentration: .01 g/L
25 nM peptide, transfer 7, Expt. 2 (repeat), Table 58
  Butanol concentration: 2.26 g/L
25 nM peptide, transfer 7, Expt. 2 (repeat), Table 45
  Residual glucose concentration: 46.5 g/L
[4]
  Butanol concentration: 11.88 g/L
  Butanol productivity: 0.12 g butanol/L-h
  Butanol yield: 0.20 g butanol/g/glucose
  Residual glucose concentration: 0.1 g/L
25 nM peptide, transfer 10, Expt. 2 (repeat), Table 58
  Butanol concentration: 3.56 g/L
25 nM peptide, transfer 10, Expt. 2 (repeat), Table 45
  Residual glucose concentration: 42.5 g/L
[5]
  Butanol concentration: 7.56 g/L
  Butanol productivity: 0.08 g butanol/L-h
  Butanol yield: 0.13 g butanol/g/glucose
  Residual glucose concentration: 0.1 g/L
25 nM peptide, transfer 13, Expt. 2 (repeat), Table 58
  Butanol concentration: 9.51 g/L
25 nM peptide, transfer 13, Expt. 2 (repeat), Table 45
  Residual glucose concentration: 0.9 g/L
[6]
  Butanol concentration: 8.33 g/L
  Butanol productivity: 0.09 g butanol/L-h
  Butanol yield: 0.14 g butanol/g/glucose
  Residual glucose concentration: 0.0 g/L
25 nM peptide, transfer 16, Expt. 2 (repeat), Table 58
  Butanol concentration: 12.57 g/L
25 nM peptide, transfer 16, Expt. 2 (repeat), Table 45
  Residual glucose concentration: 0.1 g/L
[7]
  Butanol concentration: 7.52 g/L
  Butanol productivity: 0.08 g butanol/L-h
  Butanol yield: 0.12 g butanol/g/glucose
  Residual glucose concentration: 0.1 g/L
25 nM peptide, transfer 19, Expt. 2 (repeat), Table 58
  Butanol concentration: 4.42 g/L
25 nM peptide, transfer 19, Expt. 2 (repeat), Table 45
  Residual glucose concentration: 0.1 g/L
[8]
  Butanol concentration: 13.47 g/L
  Butanol productivity: 0.14 g butanol/L-h
  Butanol yield: 0.22 g butanol/g/glucose
  Residual glucose concentration: 9.9 g/L
25 nM peptide, transfer 22, Expt. 2 (repeat), Table 58
  Butanol concentration: 3.65 g/L
25 nM peptide, transfer 22, Expt. 2 (repeat), Table 45
  Residual glucose concentration: 0.1 g/L
[9]
  Butanol concentration: 7.27 g/L
  Butanol productivity: 0.08 g butanol/L-h
  Butanol yield: 0.12 g butanol/g/glucose
  Residual glucose concentration: 0.0 g/L
25 nM peptide, transfer 24, Expt. 2 (repeat), Table 58
  Butanol concentration: 2.75 g/L
25 nM peptide, transfer 24, Expt. 2 (repeat), Table 45
  Residual glucose concentration: 0.1 g/L
[10]
  Butanol concentration: 1.90 g/L
  Butanol productivity: 0.02 g butanol/L-h
  Butanol yield: 0.03 g butanol/g/glucose
  Residual glucose concentration: 41.8 g/L
50 nM peptide, transfer 1, Expt. 2 (repeat), Table 58
  Butanol concentration: 1.29 g/L
50 nM peptide, transfer 1, Expt. 2 (repeat), Table 45
  Residual glucose concentration: 47.4 g/L
[11]
  Butanol concentration: 9.57 g/L
  Butanol productivity: 0.10 g butanol/L-h
  Butanol yield: 0.16 g butanol/g/glucose
  Residual glucose concentration: 0.0 g/L
50 nM peptide, transfer 4, Expt. 2 (repeat), Table 58
  Butanol concentration: 2.24 g/L
50 nM peptide, transfer 4, Expt. 2 (repeat), Table 45
  Residual glucose concentration: 44.9 g/L
[12]
  Butanol concentration: 7.58 g/L
  Butanol productivity: 0.08 g butanol/L-h
  Butanol yield: 0.13 g butanol/g/glucose
  Residual glucose concentration: 0.0 g/L
50 nM peptide, transfer 7, Expt. 2 (repeat), Table 58
  Butanol concentration: 1.98 g/L
50 nM peptide, transfer 7, Expt. 2 (repeat), Table 45
  Residual glucose concentration: 49.8 g/L
[13]
  Butanol concentration: 11.09 g/L
  Butanol productivity: 0.12 g butanol/L-h
  Butanol yield: 0.18 g butanol/g/glucose
  Residual glucose concentration: 0.0 g/L
50 nM peptide, transfer 10, Expt. 2 (repeat), Table 58
  Butanol concentration: 2.26 g/L
50 nM peptide, transfer 10, Expt. 2 (repeat), Table 45
  Residual glucose concentration: 48.0 g/L
[14]
  Butanol concentration: 7.90 g/L
  Butanol productivity: 0.08 g butanol/L-h
  Butanol yield: 0.13 g butanol/g/glucose
  Residual glucose concentration: 0.1 g/L
50 nM peptide, transfer 13, Expt. 2 (repeat), Table 58
  Butanol concentration: 4.58 g/L
50 nM peptide, transfer 13, Expt. 2 (repeat), Table 45
  Residual glucose concentration: 49.1 g/L
[15]
  Butanol concentration: 9.34 g/L
  Butanol productivity: 0.10 g butanol/L-h
  Butanol yield: 0.15 g butanol/g/glucose
  Residual glucose concentration: 0.0 g/L
50 nM peptide, transfer 16, Expt. 2 (repeat), Table 58
  Butanol concentration: 3.34 g/L
50 nM peptide, transfer 16, Expt. 2 (repeat), Table 45
  Residual glucose concentration: 47.7 g/L
